Test results as given in US7906486B2, “Method of treating or preventing tissue deterioration, injury or damage due to disease of mucosa” (SciClone Pharmaceuticals, Inc., priority 2007, dated 2011).

Test system: oral mucositis induced by fractionated radiation (eight doses of 7.5 Gy, left buccal cheek pouch)
Assay: Oral mucositis induced by fractionated radiation in hamsters, mucositis scoring (Example 3, SCI-03)
Type: in vivo, Syrian Golden Hamsters
Parameters: key: 0: Pouch completely healthy. No erythema or vasodilation.; 1: Light to severe erythema and vasodilation. No erosion of mucosa.; 2: Severe erythema and vasodilation. Erosion of superficial aspects of mucosa leaving denuded areas, but no frank ulceration. Decreased stippling of mucosa.; 3: Formation of off-white ulcers in one or more places. Ulcers may have a yellow/gray due to pseudomembrane. Cumulative size of ulcers should equal about ¼ of the pouch. Severe erythema and vasodilation.; 4: Cumulative seize of ulcers should equal about ½ of the pouch. Loss of pliability. Severe erythema and vasodilation.; 5: Virtually all of pouch is ulcerated. Loss of pliability (pouch can only partially be extracted from mouth)
Description: The fractionated radiation model in hamsters, developed by the Principal Investigator, has proven to be an accurate, efficient and cost-effective technique to provide a preliminary evaluation of anti-mucositis compounds. In this model, hamsters receive 8 doses of 7.5 Gy to the left cheek pouch on days 0, 1, 2, 3, […], rather than the single dose of 40 Gy on day 0 that is used in acute radiation studies. The rationale for using this scheduling for the radiation is that it more closely resembles the clinical courses of radiotherapy given to cancer patients. The course of mucositis in this model is well defined and results in peak mucositis scores approximately 14-16 days following radiation. Mortality (generally from the side effects of anesthesia) in the fractionated radiation model is slightly higher than that seen in the acute radiation model and group sizes are increased (to 10 per group) to allow for this.
(§1) Forty (40) male Syrian Golden Hamsters were given eight doses of radiation of 7.5 Gy each directed to their left buccal cheek pouch on days 0, 1, 2, 3, 6, 7, 8 and 9. This was accomplished by anesthetizing the animals and everting the left buccal pouch, while protecting the rest of the animal's bodies with a lead shield. Test materials were given by sub-cutaneous injection once daily as detailed in Table 9. Mucositis was evaluated clinically starting on day 7, and continuing on alternate days until day 35. Test articles were given as outlined Table 9, Groups 1 and 2 were dosed from Day −1 to Day 29, Group 3 was dosed on the days of radiation only, Group 4 was dosed on the days between Day −15 and Day 29 on which no radiation is given (Day −1, Day 4, Day 5 and Day 10 to Day 29).
The effect on mucositis of each drug treatment compared to placebo was assessed according to the following parameters:
On each evaluation day, the number of animals with a blinded mucositis score of ≧3 in each drug treatment group was compared to the control group. Differences were compared on a cumulative basis and statistical significance was determined by chi-square analysis. Efficacy, in this analysis, is defined by a significant reduction in the number of days that a group of animals had ulcerations (scores ≧3) when compared to the control group.
For each evaluation day the scores of the control group were compared to those of the treated groups using non-parametric rank sum analysis. Treatment success was considered as a statistically significant lowering of scores in the treated group on 2 or more days from day 6 to day 28.
as §1, with “daily at 8:00 am” for “daily”, “9. […]” for “9. Mucositis was evaluated clinically starting on day 7, and continuing on alternate days until day 35.”, “2 was” for “2 were”, “radiation only (days 0-3 and days 6-10),” for “radiation only,”, “Day −1” for “Day −15”, “Day 4 to” for “Day 4,”
Radiation was generated with a Philips 160 kVp (kilovolt potential) (18.75-ma) X-ray source at a focal distance of 30 cm, with a 3.0 mm hardened Al filtration system. Irradiation was targeted to the left buccal pouch mucosa at a rate of 3.32 Gy/minute. […] Using this calibration, the energy received by each animal at each radiation dose was approximately 64.5 nC (nanoCoulombs) at each time point. Prior to irradiation, animals were anesthetized with an intraperitoneal injection of ketamine (160 mg/kg) and xylazine (8 mg/kg). The left buccal pouch was everted, fixed and isolated using a lead shield.
The mucositis score, weight change and survival were measured throughout the study as described above. […]

Measured: Mucositis score

N[C@H](CCC(=O)N[C@@H](Cc1c[nH]c2ccccc12)C(=O)O)C(=O)O [SCV-07, γ-D-glutamyl-L-tryptophan]
2: Group 2, day 13, individual animals (two score lines each) | Group 2, day 23, individual animals (two score lines each) | Group 2, day 25, individual animals (two score lines each) | Group 2, day 27, individual animals (two score lines each) | Group 2, day 31, individual animals (two score lines each) | Group 2, day 33, individual animals (two score lines each)
